Read-outs that look alike come from different tables or passages of the source.
What was measured:
MV-4-11 [1] = assay: Cell proliferation modulatory activity, MV-4-11; format: cell-based; details: Homo sapiens, MV4-11
[2] = test system: HCT-116 human colorectal carcinoma cells; assay: Cell-proliferation assay using Alamar Blue dye; format: cell-based; details: Homo sapiens;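 note: cells exposed to compound for about 4 days, then Alamar Blue added and dye fluorescence read after about 4 h, compared with medium-only control wells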
recombinant human PIM1 = recombinant human PIM1 (Homo sapiens (Human), UniProt P11309); assay: PIM-1 kinase activity in cell-free in vitro assay; format: biochemical; details: for inhibition at 0.5 µM: 500 nM compound, read-out: PIM-1: % inh 500 nM
Flt3 = Flt3 (Homo sapiens (Human), UniProt P36888); assay: FLT-3 kinase activity in cell free in vitro assay; format: biochemical; details: cell-free assay; read-out: FLT-3
K-562 [3] = assay: Cell proliferation modulatory activity, K-562; format: cell-based; details: Homo sapiens, K562
Jurkat = assay: Cell proliferation modulatory activity, Jurkat; format: cell-based; details: Homo sapiens
MV-4-11 [4] = assay: Cell proliferation modulatory activity, MV-4-11; format: cell-based; details: Homo sapiens, MV4-11; remark: listed apart in the source
K-562 [5] = assay: Cell proliferation modulatory activity, K-562; format: cell-based; details: Homo sapiens, K562; remark: listed apart in the source
recombinant human CK2 = recombinant human CK2 (Homo sapiens (Human), UniProt P68400); assay: CK2 assay (cell-free, 33P-ATP filter plate); format: biochemical; details: cell-free assay; for IC50: 15 um ATP, read-out: CK2 (15 um ATP) IC50
[6] = HCT-116, HCT-116, second HCT-116 column (c8), read-out: HCT-116 (uM), cell proliferation modulatory activity
[7] = HCT-116, read-out: HCT-116 (uM), cell proliferation modulatory activity, HCT-116, first column
[8] = HCT-116, read-out: HCT-116 (uM), cell proliferation modulatory activity, HCT-116, second column

Chain of Flt3 (P36888 27-993): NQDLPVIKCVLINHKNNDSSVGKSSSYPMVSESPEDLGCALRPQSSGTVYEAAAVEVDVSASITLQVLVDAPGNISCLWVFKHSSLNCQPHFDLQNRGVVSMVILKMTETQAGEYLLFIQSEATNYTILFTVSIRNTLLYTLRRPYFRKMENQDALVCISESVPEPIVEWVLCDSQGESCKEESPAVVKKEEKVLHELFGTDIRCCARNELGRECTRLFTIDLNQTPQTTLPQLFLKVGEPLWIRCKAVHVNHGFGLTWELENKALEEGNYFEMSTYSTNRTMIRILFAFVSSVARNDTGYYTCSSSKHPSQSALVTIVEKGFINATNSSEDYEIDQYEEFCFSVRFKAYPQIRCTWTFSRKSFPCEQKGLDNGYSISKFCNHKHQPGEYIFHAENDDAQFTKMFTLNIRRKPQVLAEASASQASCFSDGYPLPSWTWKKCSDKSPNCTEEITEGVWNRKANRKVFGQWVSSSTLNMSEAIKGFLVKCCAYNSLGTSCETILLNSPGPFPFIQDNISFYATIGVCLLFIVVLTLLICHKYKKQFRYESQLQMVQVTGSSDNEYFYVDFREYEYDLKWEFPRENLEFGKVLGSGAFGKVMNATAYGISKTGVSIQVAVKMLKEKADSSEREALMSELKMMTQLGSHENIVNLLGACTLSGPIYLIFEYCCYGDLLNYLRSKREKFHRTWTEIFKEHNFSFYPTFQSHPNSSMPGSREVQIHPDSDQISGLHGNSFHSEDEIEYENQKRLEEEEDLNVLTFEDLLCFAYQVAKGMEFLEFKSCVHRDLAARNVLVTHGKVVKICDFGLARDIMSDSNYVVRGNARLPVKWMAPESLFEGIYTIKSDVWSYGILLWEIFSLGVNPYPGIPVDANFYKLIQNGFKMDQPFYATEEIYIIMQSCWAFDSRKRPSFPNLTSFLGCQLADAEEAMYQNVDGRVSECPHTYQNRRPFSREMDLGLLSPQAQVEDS
Chain of recombinant human PIM1 (P11309 whole entry): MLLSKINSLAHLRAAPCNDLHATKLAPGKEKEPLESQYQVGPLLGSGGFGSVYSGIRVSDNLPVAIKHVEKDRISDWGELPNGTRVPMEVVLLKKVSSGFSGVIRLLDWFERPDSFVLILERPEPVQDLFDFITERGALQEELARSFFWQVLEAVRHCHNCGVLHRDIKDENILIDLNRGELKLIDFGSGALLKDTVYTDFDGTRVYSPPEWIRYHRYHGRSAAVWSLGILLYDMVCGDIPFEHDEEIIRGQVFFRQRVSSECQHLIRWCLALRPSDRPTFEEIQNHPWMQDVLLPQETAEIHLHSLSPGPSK
Chain of recombinant human CK2 (P68400 whole entry): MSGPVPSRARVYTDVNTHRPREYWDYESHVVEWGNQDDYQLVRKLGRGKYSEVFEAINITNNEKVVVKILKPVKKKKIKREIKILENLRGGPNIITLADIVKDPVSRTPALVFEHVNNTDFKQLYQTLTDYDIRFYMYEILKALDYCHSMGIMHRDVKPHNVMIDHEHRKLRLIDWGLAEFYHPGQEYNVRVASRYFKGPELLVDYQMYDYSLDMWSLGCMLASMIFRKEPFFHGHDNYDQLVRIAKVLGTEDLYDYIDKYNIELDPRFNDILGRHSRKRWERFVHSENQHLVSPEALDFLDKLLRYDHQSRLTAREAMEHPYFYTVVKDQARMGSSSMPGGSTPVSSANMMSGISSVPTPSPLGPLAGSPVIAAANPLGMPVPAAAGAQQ
Chain of recombinant human CK2 (P67870 whole entry partner): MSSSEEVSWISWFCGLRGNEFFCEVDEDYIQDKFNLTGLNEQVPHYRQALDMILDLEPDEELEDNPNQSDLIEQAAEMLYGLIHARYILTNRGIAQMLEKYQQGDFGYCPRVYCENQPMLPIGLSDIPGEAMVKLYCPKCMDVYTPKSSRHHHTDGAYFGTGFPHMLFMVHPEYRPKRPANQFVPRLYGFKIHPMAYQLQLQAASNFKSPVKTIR

| SMILES | IC50 (MV-4-11 [1]) | IC50 [2, 6] | inhibition at 0.5 µM (recombinant human PIM1; cell-free assay) | IC50 (Flt3) | IC50 (K-562 [3]) | inhibition at 0.5 µM (recombinant human PIM1; cell-free) | IC50 (MV-4-11 [4]) | IC50 (K-562 [5]) | IC50 (recombinant human PIM1; cell-free) | further results |
| --- | --- | --- | --- | --- | --- | --- | --- | --- | --- | --- |
| O=C(NCCN1CCOCC1)c1ccc2c(c1)nc(Nc1cccc(Cl)c1)c1ccncc12 | 0.099 µM | > 10 µM | 1.16% | > 0.4 µM | > 10 µM | – | – | – | – | – |
| CC(C)OC(=O)Nc1ccc2c(c1)nc(Nc1cccc(C(F)(F)F)c1)c1nc(NC3CC3)ncc12 | 0.108 µM | – | 10.1% | > 0.4 µM | 0.061 µM | – | – | – | – | IC50 (Jurkat): 1.16 µM |
| CN(C)CCNc1nc2cc(C(=O)O)ccc2c2sccc12 | – | – | – | – | – | 83.4% | > 10 µM | > 10 µM | – | IC50 [2, 7]: 10 µM |
| Fc1ccc(Nc2nc3cc(-c4nnn[nH]4)ccc3c3sccc23)cc1 | – | – | – | – | – | 74.3% | 4.53 µM | > 10 µM | 0.174 µM | IC50 [2, 7]: 10 µM |
| NC(=O)c1ccc2c(c1)nc(Nc1cccc(Cl)c1)c1ccncc12 [drawing 1674] | 0.037 µM | 2.13 µM | -3.44% | 0.003 µM | 1.23 µM | – | – | – | – | inhibition at 0.5 µM (recombinant human CK2; 500 nM compound, read-out: CK2: % inh 500 nM): 91.2%; IC50 (recombinant human CK2): 0.417 µM; IC50 (Jurkat): 0.91 µM |
| OCc1ccc2c(c1)nc(Nc1cccc(Cl)c1)c1ccncc12 | 0.529 µM | – | 4.22% | 0.013 µM | 5.52 µM | – | – | – | – | IC50 ([2]; HCT-116, read-out: HCT-116 (uM), cell proliferation modulatory activity, HCT-116, second HCT-116 column (c8)): 4.28 µM |
| Brc1cccc(Nc2nc3cc(-c4nnn[nH]4)ccc3c3sccc23)c1 | – | – | – | – | – | 65.9% | 0.549 µM | > 10 µM | 0.22 µM | IC50 [2, 8]: > 10 µM |
| O=C(Nc1ccccc1)c1ccc2c(c1)nc(Nc1cccc(Cl)c1)c1ccncc12 | 0.069 µM | > 10 µM | -0.772% | > 0.4 µM | > 10 µM | – | – | – | – | – |
| O=C(NC1CC1)c1ccc2c(c1)nc(Nc1cccc(Cl)c1)c1ccncc12 | > 10 µM | > 10 µM | -5.18% | > 0.4 µM | > 10 µM | – | – | – | – | IC50 (recombinant human CK2): 0.487 µM; IC50 (Jurkat): 2.16 µM |
| O=C(NCc1ccccc1)c1ccc2c(c1)nc(Nc1cccc(Cl)c1)c1ccncc12 | 0.095 µM | > 10 µM | -29.4% | 0.331 µM | > 10 µM | – | – | – | – | – |
| CN1CCCN(C(=O)c2ccc3c(c2)nc(Nc2cccc(Cl)c2)c2ccncc23)CC1 | 0.171 µM | 2.67 µM | -11.8% | > 0.4 µM | > 10 µM | – | – | – | – | – |
| NCCNC(=O)c1ccc2c(c1)nc(Nc1cccc(Cl)c1)c1ccncc12 | > 10 µM | 7.22 µM | -19.8% | > 0.4 µM | > 10 µM | – | – | – | – | IC50 (Jurkat): 7.67 µM |
| O=C(O)c1ccc2c(c1)nc(Nc1cccc(C(F)(F)F)c1)c1ccsc12 | – | – | – | – | – | 74.7% | > 10 µM | > 10 µM | 0.197 µM | IC50 [2, 8]: > 10 µM |
| CN(C)CCNc1nc2cc(C(=O)O)ccc2c2cnccc12 | – | – | – | – | – | 63.6% | > 10 µM | > 10 µM | 0.242 µM | – |
| O=C(O)c1ccc2c(c1)nc(NCCc1cccc(F)c1)c1ccncc12 [drawing 1560] | – | – | – | – | – | 74% | > 10 µM | – | 0.351 µM | IC50 [2, 8]: > 10 µM |
| O=C(Nc1nccs1)c1ccc2c(c1)nc(Nc1cccc(Cl)c1)c1ccncc12 | > 10 µM | > 10 µM | -6.62% | > 0.4 µM | > 10 µM | – | – | – | – | – |
| CN(C)C(=O)c1ccc2c(c1)nc(Nc1cccc(Cl)c1)c1ccncc12 | > 10 µM | 8.17 µM | 4.85% | > 0.4 µM | > 10 µM | – | – | – | – | IC50 (recombinant human CK2): > 0.75 µM; IC50 (Jurkat): 1.51 µM |

| SMILES | IC50 (MV-4-11 [1]) | IC50 [2, 6] | inhibition at 0.5 µM (recombinant human PIM1; cell-free assay) | IC50 (Flt3) | IC50 (K-562 [3]) | inhibition at 0.5 µM (recombinant human PIM1; cell-free) | IC50 (MV-4-11 [4]) | IC50 (K-562 [5]) | IC50 (recombinant human PIM1; cell-free) | further results |
| --- | --- | --- | --- | --- | --- | --- | --- | --- | --- | --- |
| COCCNC(=O)c1ccc2c(c1)nc(Nc1cccc(Cl)c1)c1ccncc12 | 0.043 µM | > 10 µM | -29.7% | > 0.4 µM | > 10 µM | – | – | – | – | – |
| CC(C)(C)OC(=O)N1CCN(C(=O)c2ccc3c(c2)nc(Nc2cccc(Cl)c2)c2ccncc23)CC1 | > 10 µM | 5.97 µM | -7.41% | > 0.4 µM | > 10 µM | – | – | – | – | – |
| O=C(c1ccc2c(c1)nc(Nc1cccc(Cl)c1)c1ccncc12)N1CCOCC1 | > 10 µM | > 10 µM | -14.4% | > 0.4 µM | > 10 µM | – | – | – | – | – |
| O=C(O)c1ccc2c(c1)nc(Nc1ccc(F)c(Cl)c1)c1ccsc12 | – | – | – | – | – | 80.8% | 0.455 µM | > 10 µM | 0.257 µM | IC50 [2, 7]: 10 µM |
| N#Cc1cccc(Nc2nc3cc(C(=O)O)ccc3c3sccc23)c1 | – | – | – | – | – | 71.4% | 0.226 µM | > 10 µM | 0.213 µM | – |
| OCc1cccc(Nc2nc3cc(-c4nnn[nH]4)ccc3c3sccc23)c1 | – | – | – | – | – | 87.6% | 0.609 µM | > 10 µM | 0.162 µM | – |
| O=C(O)c1ccc2c(c1)nc(Nc1ccc(F)c(F)c1)c1ccsc12 | – | – | – | – | – | 85.7% | 0.658 µM | > 10 µM | 0.239 µM | IC50 [2, 8]: 0.832 µM |
| NS(=O)(=O)c1cccc(Nc2nc3cc(-c4nnn[nH]4)ccc3c3sccc23)c1 | – | – | – | – | – | 83.9% | > 10 µM | > 10 µM | 0.088 µM | IC50 [2, 8]: 10 µM |
| O=C(NCc1ccccn1)c1ccc2c(c1)nc(Nc1cccc(Cl)c1)c1ccncc12 | > 10 µM | 9.88 µM | -11.1% | 0.289 µM | > 10 µM | – | – | – | – | – |
| O=C(NCc1cccnc1)c1ccc2c(c1)nc(Nc1cccc(Cl)c1)c1ccncc12 | 0.112 µM | > 10 µM | -16.2% | > 0.4 µM | > 10 µM | – | – | – | – | – |
| O=C(O)c1ccc2c(c1)nc(NCCN1CCCC1)c1ccsc12 | – | – | – | – | – | 67.2% | > 10 µM | > 10 µM | 0.244 µM | IC50 [2, 7]: 10 µM |
| O=C(O)c1ccc2c(c1)nc(Nc1ccc(Cl)cc1)c1ccsc12 | – | – | – | – | – | 69.1% | 0.258 µM | > 10 µM | 0.289 µM | IC50 [2, 7]: 10 µM |
| CC(=O)N1CCN(C(=O)c2ccc3c(c2)nc(Nc2cccc(Cl)c2)c2ccncc23)CC1 | > 10 µM | > 10 µM | -5.01% | > 0.4 µM | > 10 µM | – | – | – | – | – |
| NC(=O)c1ccc2c(c1)nc(Nc1cccc(C(F)(F)F)c1)c1nc(NC3CC3)ncc12 | 0.149 µM | – | 12.5% | 0.343 µM | 0.157 µM | – | – | – | – | IC50 (Jurkat): 1.16 µM |
| O=C(O)c1ccc2c(c1)nc(Nc1ccccc1)c1ccncc12 | – | – | – | – | – | 21.9% | 6.45 µM | 4.01 µM | 1.02 µM | – |
| O=C(NCc1ccncc1)c1ccc2c(c1)nc(Nc1cccc(Cl)c1)c1ccncc12 | 0.181 µM | 2.5 µM | -12.8% | > 0.4 µM | > 10 µM | – | – | – | – | – |

From patent US8168651B2, “Protein kinase modulators” (Cylene Pharmaceuticals, Inc., priority 2008, dated 2012)
